Tests used:
[1] = system: LPS-induced neutrophil accumulation; assay: LPS-induced neutrophil accumulation in mice; format: in vivo, Balb/c mice; details: 1.75 μg/mouse
Protocol: […] At T=0, mice were placed into an exposure chamber and exposed to LPS (7.0 mL, 0.5 mg/mL solution in PBS) for 30 min). After a further 8 hr the animals were anesthetized, their tracheas cannulated and BALF extracted by infusing and then withdrawing from their lungs 1.0 mL of PBS via the tracheal catheter. Total and differential white cell counts in the BALF samples were measured using a Neubaur haemocytometer. Cytospin smears of the BALF samples were prepared by centrifugation at 200 rpm for 5 min at RT and stained using a DiffQuik stain system (Dade Behring). Cells were counted using oil immersion microscopy. Data for neutrophil numbers in BAL are shown as mean±S.E.M. (standard error of the mean). The percentage inhibition of neutrophil accumulation was calculated for each treatment relative to vehicle treatment.

[2] = system: Cigarette Smoke Model; assay: Cigarette smoke model; format: in vivo, A/J mice; details: 1.75 μg/mouse (35 μL, bid, i.n.)
Protocol: A/J mice (males, 5 weeks old) were exposed to cigarette smoke (4% cigarette smoke, diluted with air) for 30 min/day for 11 days using a Tobacco Smoke Inhalation Experiment System for small animals (Model SIS-CS; Sibata Scientific Technology, Tokyo, Japan). […] At 12 hr after the last dosing, each of the animals was anesthetized, the trachea cannulated and bronchoalveolar lavage fluid (BALF) was collected. The numbers of alveolar macrophages and neutrophils were determined by FACS analysis (EPICS® ALTRA II, Beckman Coulter, Inc., Fullerton, Calif., USA) using anti-mouse MOMA2 antibody (macrophage) or anti-mouse 7/4 antibody (neutrophil). BALF was centrifuged and the supernatant was collected. The level of keratinocyte chemoattractant (KC; CXCL1) in BALF was quantitated using a Quentikine® mouse KC ELISA kit (R&D systems, Inc., Minneapolis, Minn., USA).

[3] = system: Differentiated U937 cells; assay: Cell viability: MTT assay; format: cell-based, human; details: 1 μg/mL
Protocol: Differentiated U937 cells were pre-incubated with each test compound (final concentration 1 μg/mL or 10 μg/mL in 200 μL media indicated below) under two protocols: the first for 4 hr in 5% FCS RPMI1640 media and the second in 10% FCS RPMI1640 media for 24 h. The supernatant was replaced with new media (200 μL) and MTT stock solution (10 μL, 5 mg/mL) was added to each well. After incubation for 1 hr the media were removed, DMSO (200 μL) was added to each well and the plates were shaken lightly for 1 hr prior to reading the absorbance at 550 nm. The percentage loss of cell viability was calculated for each well relative to vehicle (0.5% DMSO) treatment. Consequently an apparent increase in cell viability for drug treatment relative to vehicle is tabulated as a negative percentage.

SMILES	inhibition of LPS-induced neutrophil accumulation [1]	macrophage accumulation into airways [2]	neutrophil accumulation into airways [2]	MTT Assay Cell viability in d-U937 Cells ([3]; 4 h)	MTT Assay Cell viability in d-U937 Cells ([3]; 24 h)
CCC(=O)O[C@]1(C(=O)SCF)[C@H](C)C[C@H]2[C@@H]3C[C@H](F)C4=CC(=O)C=C[C@]4(C)[C@@]3(F)[C@@H](O)C[C@@]21C [Fluticasone Propionate, fluticasone propionate, reference compound]	> 80%	did not inhibit	did not inhibit		
COCC(=O)Nc1cc(Oc2ccc(NC(=O)Nc3cc(C(C)(C)C)nn3-c3ccc(C)cc3)c3ccccc23)ccn1 [Reference Compound, N-(4-(4-(3-(3-tert-butyl-1-p-tolyl-1H-pyrazol-5-yl)ureido)naphthalen-1-yloxy)pyridin-2-yl)-2-methoxyacetamide, reference compound]				−ve (−ve and +ve indicate the value is below and above respectively, the no significant effect threshold defined as 30% inhibition at 1 μg/mL at the time point indicated.)	+ve (−ve and +ve indicate the value is below and above respectively, the no significant effect threshold defined as 30% inhibition at 1 μg/mL at the time point indicated.)

Source: patent US9108950B2, “1-pyrazolyl-3-(4-((2-anilinopyrimidin-4-yl)oxy)napththalen-1-yl) ureas as p38 MAP kinase inhibitors” (Respivert Ltd., priority 2011, dated 2015)
